The test system of the test is Nrf2 transcriptional activity (pARE-Luc reporter) in HepG2 cells. In words: In vitro Nrf2 transcriptional activity measurement by ARE-dependent reporter assay in HepG2 cell. The format is cell-based, human. Particulars: Homo sapiens; HepG2 cells transfected with pARE-Luc, 4 hours at 37° C.; luciferase activity of Example 1-54 or Example 17-23 at 3.75 μM defined as 100%. The procedure, abridged: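 Luminescence readout (Bright-Glo) after 4 h, 37° C compound exposure of HepG2 cells carrying the ARE-luciferase vector pGL4.37. Each well converted to % response versus reference compound at 3.75 μM, and EC50 derived from dose-response curves.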

In patent US20250171457A1, “NITROGEN-CONTAINING HETEROCYCLIC COMPOUND HAVING NRF2 ACTIVATION EFFECT” (CHUGAI SEIYAKU KABUSHIKI KAISHA, priority 2022, published 2025) one finds EC50 data, which are given here for 26 compounds.

Consider `Cn1cc(-c2cc(Cl)c(C(=O)N3COc4c(ccc(F)c4-c4ccc(C(=O)O)c(N5CCOCC5)c4)C3)c(Cl)c2)cn1` [Compound 13-9, 4-[3-[2,6-Dichloro-4-(1-methylpyrazol-4-yl)benzoyl]-7-fluoro-2,4-dihydro-1,3-benzoxazin-8-yl]-2-morpholin-4-ylbenzoic acid], for which it took 5.2 nM to reach a half-maximal effect (EC50).

As for `Cn1cc(-c2cc(Cl)c(C(=O)N3COc4c(cccc4-c4cc(N5CCOCC5)c(C(=O)O)cc4F)C3)cn2)cn1` [Compound 13-10, 4-[3-[4-Chloro-6-(1-methylpyrazol-4-yl)pyridine-3-carbonyl]-2,4-dihydro-1,3-benzoxazin-8-yl]-5-fluoro-2-morpholin-4-ylbenzoic acid], the EC50 (as a rule, the concentration at which the effect is half-maximal) was found to be 17 nM.

In the case of `Cn1ccc2cc(C(=O)N3COc4c(cccc4-c4cc(N5CCOCC5)c(C(=O)O)cc4F)C3)c(Cl)cc21` [Compound 13-11, 4-[3-(6-Chloro-1-methylindole-5-carbonyl)-2,4-dihydro-1,3-benzoxazin-8-yl]-5-fluoro-2-morpholin-4-ylbenzoic acid], it took 7.5 nM to reach a half-maximal effect (EC50).

Regarding `Cn1ccc2cc(Cl)c(C(=O)N3COc4c(cccc4-c4cc(N5CCOCC5)c(C(=O)O)cc4F)C3)cc21` [Compound 13-12, 4-[3-(5-Chloro-1-methylindole-6-carbonyl)-2,4-dihydro-1,3-benzoxazin-8-yl]-5-fluoro-2-morpholin-4-ylbenzoic acid], the concentration for a half-maximal effect (EC50) came to 17 nM.

`Cn1ccc2c(C(=O)N3COc4c(cccc4-c4cc(N5CCOCC5)c(C(=O)O)cc4F)C3)c(Cl)cnc21` [Compound 13-13, 4-[3-(5-Chloro-1-methylpyrrolo[2,3-b]pyridine-4-carbonyl)-2,4-dihydro-1,3-benzoxazin-8-yl]-5-fluoro-2-morpholin-4-ylbenzoic acid]: the EC50 was determined as 7.1 nM.

Compound `O=C(O)c1cc(F)c(-c2cccc3c2OCN(C(=O)c2c(Cl)ccc4cc(Cl)cnc24)C3)cc1N1CCOCC1` [Compound 13-14, 4-[3-(3,7-Dichloroquinoline-8-carbonyl)-2,4-dihydro-1,3-benzoxazin-8-yl]-5-fluoro-2-morpholin-4-ylbenzoic acid] returned an EC50 of 13 nM.

As to `Cn1ncc2cc(Cl)c(C(=O)N3COc4c(cccc4-c4cc(N5CCOCC5)c(C(=O)O)cc4F)C3)cc21` [Compound 13-15, 4-[3-(5-Chloro-1-methylindazole-6-carbonyl)-2,4-dihydro-1,3-benzoxazin-8-yl]-5-fluoro-2-morpholin-4-ylbenzoic acid], a half-maximal response (EC50) required 10 nM.

Regarding `COc1cc(Cl)c(C(=O)N2COc3c(cccc3-c3cc(N4CCOCC4)c(C(=O)O)cc3F)C2)cc1OC` [Compound 13-17, 4-[3-(2-Chloro-4,5-dimethoxybenzoyl)-2,4-dihydro-1,3-benzoxazin-8-yl]-5-fluoro-2-morpholin-4-ylbenzoic acid], a half-maximal response (EC50) required 5.9 nM.

`Cn1cc(-c2cc(Cl)c(C(=O)N3CSc4c(cccc4-c4cc(N5CCOCC5)c(C(=O)O)cc4F)C3)c(Cl)c2)cn1` [Compound 13-18, 4-[3-[2,6-Dichloro-4-(1-methylpyrazol-4-yl)benzoyl]-2,4-dihydro-1,3-benzothiazin-8-yl]-5-fluoro-2-morpholin-4-ylbenzoic acid] had an EC50 of 21 nM.

Compound `Cn1cc(-c2cc(Cl)c(C(=O)N3COc4c(cccc4-c4cc(N5CCOCC5)c(C(=O)O)cc4F)C3)c(Cl)c2)cn1` [Compound 13-19, 4-[3-[2,6-Dichloro-4-(1-methylpyrazol-4-yl)benzoyl]-2,4-dihydro-1,3-benzoxazin-8-yl]-5-fluoro-2-morpholin-4-ylbenzoic acid] yielded a concentration for a half-maximal effect (EC50) of 1.6 nM.

`Cc1cc(-c2cccc3c2OCN(C(=O)c2c(Cl)cc(-c4cnn(C)c4)cc2Cl)C3)cc(N2CCOCC2)c1C(=O)O` [Compound 13-20, 4-[3-[2,6-Dichloro-4-(1-methylpyrazol-4-yl)benzoyl]-2,4-dihydro-1,3-benzoxazin-8-yl]-2-methyl-6-morpholin-4-ylbenzoic acid] registered an EC50 of 7.2 nM.

With `Cn1cc(-c2cc(Cl)c(C(=O)N3COc4c(cccc4-c4cc(N5CC6COCC6C5)c(C(=O)O)cc4F)C3)c(Cl)c2)cn1` (centres unmarked) [Compound 14-2, 2-(1,3,3a,4,6,6a-Hexahydrofuro[3,4-c]pyrrol-5-yl)-4-[3-[2,6-dichloro-4-(1-methylpyrazol-4-yl)benzoyl]-2,4-dihydro-1,3-benzoxazin-8-yl]-5-fluorobenzoic acid], the EC50 was found to be 6.5 nM.

`Cn1cc(-c2cc(Cl)c(C(=O)N3COc4c(cccc4-c4ccc(C(=O)O)c(N5CCC(F)(F)CC5)c4)C3)c(Cl)c2)cn1` [Compound 14-3, 4-[3-[2,6-Dichloro-4-(1-methylpyrazol-4-yl)benzoyl]-2,4-dihydro-1,3-benzoxazin-8-yl]-2-(4,4-difluoropiperidin-1-yl)benzoic acid] registered an EC50 of 12 nM.

As for `Cn1cc(-c2cc(Cl)c(C(=O)N3Cc4cccc(-c5ccc(C(=O)O)c(N6CCOCC6)c5)c4C(=O)N3)c(Cl)c2)cn1` [Compound 14-4, 4-[2-[2,6-Dichloro-4-(1-methylpyrazol-4-yl)benzoyl]-4-oxo-1,3-dihydrophthalazin-5-yl]-2-morpholin-4-ylbenzoic acid], the response was half-maximal at 3.8 nM (EC50).

`Cn1cc(-c2cc(Cl)c(C(=O)N3CNc4c(cccc4-c4ccc(C(=O)O)c(N5CCOCC5)c4)C3)c(Cl)c2)cn1` [Compound 14-5, 4-[3-[2,6-Dichloro-4-(1-methylpyrazol-4-yl)benzoyl]-2,4-dihydro-1H-quinazolin-8-yl]-2-morpholin-4-ylbenzoic acid] yielded a concentration giving a half-maximal response (EC50) of 3.1 nM.

Regarding `Cn1cc(-c2cc(Cl)c(C(=O)N3Cc4cccc(-c5ccc(C(=O)O)c(N6CCOCC6)c5)c4NC3=O)c(Cl)c2)cn1` [Compound 14-6, 4-[3-[2,6-Dichloro-4-(1-methylpyrazol-4-yl)benzoyl]-2-oxo-1,4-dihydroquinazolin-8-yl]-2-morpholin-4-ylbenzoic acid], the EC50 was found to be 20 nM.

The compound `[2H]C1([2H])c2cccc(-c3ccc(C(=O)O)c(N4CCOCC4)c3)c2OCN1C(=O)c1c(Cl)cc(-c2cnn(C)c2)cc1Cl` [Compound 14-7, 4-[4,4-Dideuterio-3-[2,6-dichloro-4-(1-methylpyrazol-4-yl)benzoyl]-2H-1,3-benzoxazin-8-yl]-2-morpholin-4-ylbenzoic acid] registered an EC50 of 2.5 nM.

For `Cn1cc(-c2cc(Cl)c(C(=O)N3Cc4cccc(-c5ccc(C(=O)O)c(N6CCOCC6)c5)c4CO3)c(Cl)c2)cn1` [Compound 14-8, 4-[3-[2,6-Dichloro-4-(1-methylpyrazol-4-yl)benzoyl]-1,4-dihydro-2,3-benzoxazin-8-yl]-2-morpholin-4-ylbenzoic acid], the midpoint of the response, the EC50, lay at 70 nM.

As to `COCCN1CCN(c2cc(Cl)c(C(=O)N3COc4c(cccc4-c4cc(N5C6CCC5COC6)c(C(=O)O)cc4F)C3)c(Cl)c2)CC1` [Compound 14-9, 4-[3-[2,6-Dichloro-4-[4-(2-methoxyethyl)piperazin-1-yl]benzoyl]-2,4-dihydro-1,3-benzoxazin-8-yl]-5-fluoro-2-(3-oxa-8-azabicyclo[3.2.1]octan-8-yl)benzoic acid], a half-maximal effect (EC50) was put at 3.7 nM.

`CC(C)(O)Cn1cc(-c2cc(Cl)c(C(=O)N3COc4c(cccc4-c4ccc(C(=O)O)c(N5CCOCC5)c4)C3)c(Cl)c2)cn1` [Compound 15-1, 4-[3-[2,6-Dichloro-4-[1-(2-hydroxy-2-methylpropyl)pyrazol-4-yl]benzoyl]-2,4-dihydro-1,3-benzoxazin-8-yl]-2-morpholin-4-ylbenzoic acid] returned an EC50 of 4.9 nM.

Take `C[C@H](O)Cn1cc(-c2cc(Cl)c(C(=O)N3COc4c(cccc4-c4ccc(C(=O)O)c(N5CCOCC5)c4)C3)c(Cl)c2)cn1` [Compound 15-2, 4-[3-[2,6-Dichloro-4-[1-[(2S)-2-hydroxypropyl]pyrazol-4-yl]benzoyl]-2,4-dihydro-1,3-benzoxazin-8-yl]-2-morpholin-4-ylbenzoic acid]: a half-maximal effect (EC50) was put at 21 nM.

Compound `COC[C@H](O)Cn1cc(-c2cc(Cl)c(C(=O)N3COc4c(cccc4-c4cc(N5CCOCC5)c(C(=O)O)cc4F)C3)c(Cl)c2)cn1` [Compound 15-3, 4-[3-[2,6-Dichloro-4-[1-[(2R)-2-hydroxy-3-methoxypropyl]pyrazol-4-yl]benzoyl]-2,4-dihydro-1,3-benzoxazin-8-yl]-5-fluoro-2-morpholin-4-ylbenzoic acid] had a concentration for a half-maximal effect (EC50) of 1.5 nM.

As to `COC[C@H](O)Cn1cc(-c2cc(Cl)c(C(=O)N3COc4c(cccc4-c4ccc(C(=O)O)c(N5CCOCC5)c4)C3)c(Cl)c2)cn1` [Compound 15-4, 4-[3-[2,6-Dichloro-4-[1-[(2R)-2-hydroxy-3-methoxypropyl]pyrazol-4-yl]benzoyl]-2,4-dihydro-1,3-benzoxazin-8-yl]-2-morpholin-4-ylbenzoic acid], a half-maximal response (EC50) required 6.8 nM. This EC50 lies about 4.5-fold higher than the previous one.

On to `CC1(O)CC2(CN(c3cc(Cl)c(C(=O)N4COc5c(cccc5-c5cc(N6C7CCC6COC7)c(C(=O)O)cc5F)C4)c(Cl)c3)C2)C1` [Compound 16-1, 4-[3-[2,6-Dichloro-4-(6-hydroxy-6-methyl-2-azaspiro[3.3]heptan-2-yl)benzoyl]-2,4-dihydro-1,3-benzoxazin-8-yl]-5-fluoro-2-(3-oxa-8-azabicyclo[3.2.1]octan-8-yl)benzoic acid], for which the concentration giving a half-maximal response (EC50) was determined as 13 nM. Compared with the last compound, the EC50 is about 1.9-fold higher.

In turn, `COC1(C)CC2(CN(c3cc(Cl)c(C(=O)N4COc5c(cccc5-c5cc(N6C7CCC6COC7)c(C(=O)O)cc5F)C4)c(Cl)c3)C2)C1` [Compound 16-2, 4-[3-[2,6-Dichloro-4-(6-methoxy-6-methyl-2-azaspiro[3.3]heptan-2-yl)benzoyl]-2,4-dihydro-1,3-benzoxazin-8-yl]-5-fluoro-2-(3-oxa-8-azabicyclo[3.2.1]octan-8-yl)benzoic acid] had a concentration for a half-maximal effect (EC50) of 1.5 nM.

Compound `C[C@@H]1CN(C)CCN1c1cc(Cl)c(C(=O)N2COc3c(cccc3-c3cc(N4C5CCC4COC5)c(-c4n[nH]c(=O)o4)cc3F)C2)c(Cl)c1` [Compound 16-3, 5-[4-[3-[2,6-Dichloro-4-[(2R)-2,4-dimethylpiperazin-1-yl]benzoyl]-2,4-dihydro-1,3-benzoxazin-8-yl]-5-fluoro-2-(3-oxa-8-azabicyclo[3.2.1]octan-8-yl)phenyl]-3H-1,3,4-oxadiazol-2-one] displayed a concentration giving a half-maximal response (EC50) of 17 nM.
